The record followed here is ChEMBL document CHEMBL2151007, “Total Syntheses and Cytotoxicity of (R)- and (S)-Boehmeriasin A” (ACS Med Chem Lett, 2011).

The nature of assay [1]: Cytotoxicity against human NCI-ADR-RES cells after 48 hrs by Alamar blue assay. Format: functional, cell-based. On the technique in general: Alamar Blue is a resazurin reagent that responds to reducing activity.
In assay [2] the test system is COLO 205. In words: Cytotoxicity against human COLO205 cells after 48 hrs by Alamar blue assay. Format: functional, cell-based. The note with it: COLO 205, 48 h.
The test system of assay [3] is MCF7. In words: Cytotoxicity against human MCF7 cells. It is filed as functional.
Assay [4] deals with MCF7. In words: Cytotoxicity against human MCF7 cells after 48 hrs by Alamar blue assay. Format: functional, cell-based. The following applies: MCF7, 48 h.
The test system of assay [5] is COLO 205. In words: Cytotoxicity against human COLO205 cells. Format: functional.

Where only a bound is given, the exact number is not on record here.

Broadly, the IC50 is the concentration needed to halve the response being measured. Low values mean higher potency, high ones lower potency. A word on the GI50: it is the concentration at which growth is held to half of that of the control. A higher GI50 goes with lower sensitivity of the cells. Consider `COc1ccc2c3c(c4cc(OC)c(OC)cc4c2c1)CN1CCCC[C@@H]1C3`, for which the half-inhibitory concentration (IC50) in assay [1] was 0.0367 µM; in the assay on COLO 205 [2], 0.00418 µM; in the assay with MCF7 [4] it was 0.0434 µM. Also, the GI50 in the assay with MCF7 [3] is 0.013 µM; with COLO 205 [5], 0.0008 µM.

Regarding `COc1ccc2c3c(c4cc(OC)c(OC)cc4c2c1)CN1CCCC[C@H]1C3`, the IC50 in assay [1] was 0.434 µM; in the assay on COLO 205 [2] it was 0.103 µM; in the assay with MCF7 [4], 0.0927 µM.

As to `CC(=O)O[C@H]1C(=O)[C@@]2(C)[C@H]([C@H](OC(=O)c3ccccc3)[C@]3(O)C[C@H](OC(=O)[C@H](O)[C@@H](NC(=O)c4ccccc4)c4ccccc4)C(C)=C1C3(C)C)[C@]1(OC(C)=O)CO[C@@H]1C[C@@H]2O` [PACLITAXEL], the results for the IC50 (in assay [1]; in the assay on COLO 205 [2]; in the assay on MCF7 [4]) were over 6.4 µM, 0.00331 µM and 0.00162 µM, respectively.
